In the OligoGym collection:
“And” between values parts separate entries of the source, which are not always exact repeats. Equal entries are not always repeated. After the bases stand the sugars from the 5' end (letter, count) and the backbone: PS all phosphorothioate, else s phosphorothioate and o phosphodiester by linkage. Methylation of C is not given here. e = 2'-O-(2-methoxyethyl) (MOE); k = constrained ethyl (cEt); d = 2'-deoxy (DNA)

Each sequence was assayed against HSD17B13. Settings: ASO, HepaRG, 1 µM.

Row | Sequence | target mRNA inhibition
1 | TTTGCAGCATTGATTC (sugars k3 d10 k3, PS) | 53%
2 | TTTGGTGGACTTCAGA (sugars k3 d10 k3, PS) | 16%
3 | TTTGTTAGAGTGCTTA (sugars k3 d10 k3, PS) | 80%

Same assay, conditions: ASO, HepaRG, 1.25 µM

Row | Sequence | target mRNA inhibition
4 | TTATAACTACAAGAGG (sugars k3 d10 k3, PS) | 60%
5 | TTATGTAATAGCCAGT (sugars k3 d10 k3, PS) | 78%
6 | TTTGTTAGAGTGCTTA (sugars k3 d10 k3, PS) | 86%

Same assay, conditions: ASO, HepaRG, 5 µM

Row | Sequence | target mRNA inhibition
7 | TTATAACTACAAGAGG (sugars k3 d10 k3, PS) | 82%
8 | TTATGTAATAGCCAGT (sugars k3 d10 k3, PS) | 89%
9 | TTTGTTAGAGTGCTTA (sugars k3 d10 k3, PS) | 89%

These sequences were tested against IRF4. Settings: ASO, MM.1R, 0.0625 µM.

Row | Sequence | target mRNA inhibition
10 | AACCTTAAGCTATTTG (sugars k3 d10 k3, PS) | -10%

Same assay, conditions: ASO, MM.1R, 0.25 µM

Row | Sequence | target mRNA inhibition
11 | AACCTTAAGCTATTTG (sugars k3 d10 k3, PS) | -5%

Same assay, conditions: ASO, MM.1R, 1 µM

Row | Sequence | target mRNA inhibition
12 | AAAAAGGTGCAAGCCT (sugars k3 d10 k3, PS) | 6%
13 | AAACATCCAAAGGGTT (sugars k3 d10 k3, PS) | -1%
14 | AAAGAAGCAAGTCGGT (sugars k3 d10 k3, PS) | -2%
15 | AAAGAATGGCGCATAG (sugars k3 d10 k3, PS) | 10%
16 | AACGAGCCAGTGCACA (sugars k3 d10 k3, PS) | -1%
17 | AAGCAGTGATGTCAGG (sugars kdddddddddkekeke, PS) | 34% and 35%
18 | AAGCATTTTATCATCC (sugars e1 k2 d9 k2 e2, PS) | 14%
19 | AAGCATTTTATCATCC (sugars kkdddddddddkdkdk, PS) | 3%
20 | AAGCATTTTATCATCC (sugars kkkdddddddddkeke, PS) | 21%
21 | AAGCGAGTCAGACAGT (sugars k3 d10 k3, PS) | -22%
22 | AAGCTTGATAAAGGCT (sugars k3 d10 k3, PS) | 3%
23 | AAGTGGAACTCATAGG (sugars k3 d10 k3, PS) | 25%
24 | AAGTGTCTAAAGTCCC (sugars kkdddddddddkekek, PS) | 12% and 22%
25 | AAGTTCATGTAAAGTC (sugars k2 d9 e3 k2, PS) | 21% and 3%
26 | AAGTTCATGTAAAGTC (sugars k3 d10 k3, PS) | 43% and 41%
27 | AAGTTCATGTAAAGTC (sugars kdddddddddkekeke, PS) | 14% and 21%
28 | AAGTTCATGTAAAGTC (sugars kkdddddddddkekek, PS) | 34% and 27%
29 | AATAAAATGTCACGCC (sugars k3 d10 k3, PS) | 20%
30 | AATATAACGGTGTTTC (sugars k3 d10 k3, PS) | 8%

Same assay, conditions: ASO, MM.1R, 4 µM

Row | Sequence | target mRNA inhibition
31 | AACCTTAAGCTATTTG (sugars k3 d10 k3, PS) | 48%

Same assay, conditions: ASO, SK-MEL-28, 4 µM

Row | Sequence | target mRNA inhibition
32 | AAAAAAGGTGCAAGCC (sugars k3 d10 k3, PS) | 7%
33 | AAAAACTTGGGTCACT (sugars k3 d10 k3, PS) | -19%
34 | AAAAATGTCCCATCCA (sugars k3 d10 k3, PS) | 30%
35 | AAAACAGTAAGAGGGC (sugars k3 d10 k3, PS) | 39%
36 | AAAAGAGCCGCCACAT (sugars k3 d10 k3, PS) | 16%
37 | AAACACCTCAGCTGAC (sugars k3 d10 k3, PS) | 16%
38 | AAACAGCCGCCGGCAC (sugars k3 d10 k3, PS) | 11%
39 | AAACAGTGCCCAAGCC (sugars k3 d10 k3, PS) | 25%
40 | AAAGATGCCAGAGGGC (sugars k3 d10 k3, PS) | 23%
41 | AAAGCATAGAGTCACC (sugars k3 d10 k3, PS) | 34%
42 | AAAGGAGGTAGTGGCC (sugars k3 d10 k3, PS) | 21%
43 | AAAGGCCAAATTGCAA (sugars k3 d10 k3, PS) | 52%
44 | AAATAGCATCAGAGCT (sugars k3 d10 k3, PS) | 13%
45 | AACAGATAGTTAAGTA (sugars k3 d10 k3, PS) | 19%
46 | AACCAAGAAATGCACC (sugars k3 d10 k3, PS) | 33%
47 | AACCACAAGCAGTGAT (sugars k3 d10 k3, PS) | 17%
48 | AACTTACAGGACTATT (sugars k3 d10 k3, PS) | 13%
49 | AAGATACAAAACGGAC (sugars k3 d10 k3, PS) | 39%
50 | AAGATGACTCCATGAG (sugars k3 d10 k3, PS) | 64%
51 | AAGCAAGAGCTTACTG (sugars k3 d10 k3, PS) | 14%
52 | AAGCAAGTGGAGGTCT (sugars k3 d10 k3, PS) | 51%
53 | AAGCACTGGCATTGAG (sugars k3 d10 k3, PS) | 42%
54 | AAGGGTTACGCTTATT (sugars k3 d10 k3, PS) | 52%
55 | AAGGTCTGAGAGCCTT (sugars k3 d10 k3, PS) | 17%
56 | AAGGTTCCTGTCACCT (sugars k4 d8 k4, PS) | 14%
57 | AAGTGATAGGTATACT (sugars k3 d10 k3, PS) | 50%
58 | AATAAACACCCCTTCT (sugars k3 d10 k3, PS) | 21%
59 | AATAAAGACCTTAACC (sugars k3 d10 k3, PS) | 11%
60 | AATAAGCAGAAACAGC (sugars k3 d10 k3, PS) | -1%
